Source: patent US12133855B2, “Lipid-like nanocomplexes and uses thereof” (Trustees of Tufts College, priority 2018, dated 2024)

Key:
[1] = system: GFP-HEK cells; assay: Cas9 mRNA and sgRNA delivery, GFP knockout (GFP− cells); assay type: cell-based; conditions: Cas9 mRNA and sgRNA 1/1; lipidoid/mRNA=10/1; [mRNA]=0.86 μg mL^−1; 48 h
Description: Next, the possibility of using OCholB LNPs to deliver mRNA for genome editing (Cre-loxP and CRISPR/Cas9 systems) purposes was examined. First, Cre mRNA was complexed with OCholB LNPs and tested against HeLa-DsRed cells. The HeLa-DsRed cells express red fluorescent protein, DsRed, only upon Cre protein-mediated recombination. After 24 h of incubation with mRNA/LNPs (lipidoid/mRNA=10/1; [mRNA]=0.86 μg mL^−1), the DsRed^+ cell portions were determined by flow cytometry. […] Then the Cas9 mRNA that expresses a version of Streptococcus pyogenes SF370 Cas9 protein with an N and C terminal nuclear localization signal (NLS) were loaded into LNPs, along with single-guide RNA (sgRNA) that targets a sequence on GFP gene. GFP-HEK cells which steadily express GFP proteins were used a cell model in this case. GFP-cells, indicating a successful Cas9-mediated knockdown of GFP expression, were analyzed using flow cytometry. […] This was also found to be applicable to protein delivery in our previous studies.
In this context, two strategies were tested, i.e., synthesizing new OCholB-tailed lipidoids with single tail rather than full substitution, and adding helper lipids (phospholipids) into fully substituted OCholB LNPs. Single-tailed lipidoids, 75-OCholB-1, 76-OCholB-1 and […] at first following similar protocols as described before and characterized by ESI-MS ([75-OCholB-1+H]^+, 736.55; [76-OCholB-1+H]^+, 734.64; [77-OCholB-1+H]^+, 748.73). Nanoparticles were than fabricated using the same sonication/vortex procedures and the obtained LNPs were measured by DLS (75-OCholB-1, <Dh>=302.6 nm, μ2/I^2=0.30; 76-OCholB-1, <Dh>=294.5 nm, μ2/I^2=0.30; 77-OCholB-1, <Dh>=254.2 nm, μ2/I^2=0.33). […] 69.4%, 72.5% and 68.9% of GFP^+ cells were determined for mRNA/75-OCholB-1, mRNA/76-OCholB-1 and mRNA/77-OCholB-1 treated HeLa cells, respectively. Cre mRNA could also be efficiently delivered into HeLa-DsRed cells, as 87.3% (mRNA/75-OCholB-1), 82.8% (mRNA/76-OCholB-1) and 81.5% (mRNA/77-OCholB-1) of cells were determined to be DsRed^+ after 24 h of exposure (FIG. 14G). […]

[2] = TEM size of lipidoid nanoparticles; assay type: physicochemical; conditions: TEM images of LNPs
Description: All chemicals used for lipidoids synthesis were purchased from Sigma-Aldrich without further purification unless otherwise noted. (−30)GFP-Cre recombinase, S. pyogenes Cas9 (spCas9) and sgRNA were generated following the protocols reported in Wang at al., Proc. Natl. Acad. Sci. USA, 2016, 113, 2868-2873 (“Wang”). HeLa-DsRed and GFP-HEK cells were cultured in Dulbecco's modified eagle's medium (DMEM, Sigma-Aldrich) with 10% fetal bovine serum (FBS, Sigma-Aldrich) and 1% penicillin-streptomycin (Gibco). All ^1H NMR spectra were recorded on a Bruker AVIII 500 MHz NMR spectrometer operated in the Fourier transform mode. Hydrodynamic size and polydispersity index of nanoparticles were measured by Zeta-PALS particle size analyzer (Brookhaven Instruments). The apparent pKa values of lipidoids were determined using 2-(p-toluidinynaphthalene-6-sulphonic acid) (TNS, Sigma-Aldrich) as fluorescent probe following the protocols reported in Heyes et al., J. Controlled Release, 2005, 107, 276-287. TEM measurements were performed on a FEI Technai Transmission Electron Microscope. Fluorescence images of tissue slices were obtained using BZ-X Analyzer fluorescence microscope.
The morphologies of LNPs were further studied by the transmission electron microscopy (TEM). […] Subsequently, the stability of LNPs thus prepared was examined by DLS and fluorescence measurements.
The morphologies of OCholB fully substituted LNPs were then examined by transmission electron microscopy (TEM). […] In contrast, the vesicular structures were not well-formed for 87-OCholB and 90-OCholB compared to their counterparts, and amorphous aggregates were observed instead.

| Structure (SMILES) | GFP^− cells [1] [%] | size measured by TEM [2] [nm] |
| --- | --- | --- |
| CCN(CC)CCN(CCC(=O)OCCSSCCNC(=O)OC1CCC2(C)C(=CCC3C2CCC2(C)C(C(C)CCCC(C)C)CCC32)C1)CCC(=O)OCCSSCCNC(=O)OC1CCC2(C)C(=CCC3C2CCC2(C)C(C(C)CCCC(C)C)CCC32)C1 (centres unmarked) [Lipidoid 75-OCholB] | 6.1 |  |
| CC(C)CCCC(C)C1CCC2C3CC=C4CC(OC(=O)NCCSSCCOC(=O)CCN(CCC(=O)OCCSSCCNC(=O)OC5CCC6(C)C(=CCC7C6CCC6(C)C(C(C)CCCC(C)C)CCC76)C5)CCN5CCCC5)CCC4(C)C3CCC12C (centres unmarked) [Lipidoid 76-OCholB] | 7.7 |  |
| CC(C)CCCC(C)C1CCC2C3CC=C4CC(OC(=O)NCCSSCCOC(=O)CCN(CCC(=O)OCCSSCCNC(=O)OC5CCC6(C)C(=CCC7C6CCC6(C)C(C(C)CCCC(C)C)CCC76)C5)CCC5CCCN5C)CCC4(C)C3CCC12C (centres unmarked) [Lipidoid 77-OCholB] | 4.4 |  |
| CCN(CC)CCCN(CCC(=O)OCCSSCCNC(=O)OC1CCC2(C)C(=CCC3C2CCC2(C)C(C(C)CCCC(C)C)CCC32)C1)CCC(=O)OCCSSCCNC(=O)OC1CCC2(C)C(=CCC3C2CCC2(C)C(C(C)CCCC(C)C)CCC32)C1 (centres unmarked) [Lipidoid 81-OCholB] |  | 216.9 |
| CC(C)CCCC(C)C1CCC2C3CC=C4CC(OC(=O)NCCSSCCOC(=O)CCN(C)CCN(CCN(C)CCC(=O)OCCSSCCNC(=O)OC5CCC6(C)C(=CCC7C6CCC6(C)C(C(C)CCCC(C)C)CCC76)C5)CCN(C)CCC(=O)OCCSSCCNC(=O)OC5CCC6(C)C(=CCC7C6CCC6(C)C(C(C)CCCC(C)C)CCC76)C5)CCC4(C)C3CCC12C (centres unmarked) [Lipidoid 304-OCholB] |  | 394.0 |
